For eleven compounds, IC50 results are on record in ChEMBL document CHEMBL6087484, “Discovery of Novel Small-Molecule Inhibitors Disrupting the MTDH-SND1 Protein-Protein Interaction” (J Med Chem, 2025).

Structures are written as SMILES.

The assay deals with MCF7. The assay can be described thus: Anti-proliferative activity against human MCF7 cells assessed as cell viability measured after 72 hrs by CCK8 assay. The settings on record: MCF7, 72 h.

What is called IC50 is the concentration needed to halve the response being measured. Regarding `O=S(=O)(Nc1cccc2cccnc12)c1cccc2cccnc12`, the concentration for half-maximal inhibition (IC50) was 901 nM.
As for `COc1cc(NS(=O)(=O)c2cccc3cccnc23)c2ncccc2c1`, the figure is 2350 nM.
Regarding `O=S(=O)(Nc1cc(Cl)cc2cccnc12)c1cccc2cccnc12`, the half-maximal inhibitory concentration (IC50) came out at 1170 nM.
Under `O=S(=O)(Nc1cccc2cc(Br)cnc12)c1cccc2cccnc12` stands 4380 nM; under `Cc1ccc2cccc(NS(=O)(=O)c3cccc4cccnc34)c2n1`, more than 10000 nM; under `COc1ccc(Cl)cc1S(=O)(=O)Nc1cccn2ncnc12`, more than 10000 nM.
Under `CC(C)N1CCN(c2ccc(NS(=O)(=O)c3cccc4cccnc34)c3ncccc23)CC1` stands 6420 nM; under `O=S(=O)(Nc1cccc2cc(Nc3ccccc3)cnc12)c1cccc2cccnc12`, more than 10000 nM.
As to `O=S(=O)(Nc1ccc(Cl)c2cccnc12)c1cccc2cccnc12`, the half-maximal inhibitory concentration (IC50) was 2890 nM.
Consider `O=S(=O)(Nc1ccc(Br)c2cccnc12)c1cccc2cccnc12`, for which the half-maximal inhibitory concentration (IC50) worked out at 2190 nM.
As for `O=S(=O)(Nc1cc(Br)cc2cccnc12)c1cccc2cccnc12`, the figure is 2110 nM.
